From US10980822B2, “Medicinal composition comprising SGLT-2 inhibitor and angiotensin receptor blocker” (AUTOTELIC BIO INC., priority 2017, dated 2021)

What was measured:
SHR rats = test: 4-week evaluation of blood pressure lowering effect (non-invasive tail systolic and diastolic blood pressure); type: in vivo, rat; settings: for Diastolic blood pressure at 1st week after administration / Diastolic blood pressure at 2nd week after administration / Diastolic blood pressure at 3rd week after administration / Diastolic blood pressure at 4th week after administration / Systolic blood pressure at 1st week after administration / Systolic blood pressure at 2nd week after administration / Systolic blood pressure at 3rd week after administration / Systolic blood pressure at 4th week after administration: oral once daily; for Diastolic blood pressure immediately after administration / Systolic blood pressure immediately after administration: oral, mean of 8 rats
Protocol: As experimental animals, 6-week-old male SHR rats were used (however, WKY rats were used as a normal control). A method for measurement of blood pressure is as follows: […] The rats were divided into total 7 groups according to the kind of drug to be administered, and eight rats were randomly assigned to each group. The groups administered with each drug are as follows: (3) a group administered with test substance 1 (G3): a group administered with a combination of 2 mg/kg/day of olmesartan medoxomil+1 mg/kg/day of dapagliflozin; (4) a group administered with test substance 2 (G4): a group administered with a combination of 2 mg/kg/day of olmesartan medoxomil+3 mg/kg/day of dapagliflozin; (5) a group administered with comparative substance 1 (G5): a group administered with 2 mg/kg/day of olmesartan medoxomil alone; (6) a group administered with comparative substance 2 (G6): a group administered with 1 mg/kg/day of dapagliflozin alone; (7) a group administered with […]: a group administered with 3 mg/kg/day of dapagliflozin alone. (* In this Experimental Example, dapagliflozin was administered in an anhydride form, not a solvate form). For drug administration, each drug was forcibly administered into the rat's stomach through a disposable syringe with an oral zonde at a predetermined dose at the same time every day. As test substances, olmesartan medoxomil was administered, and then immediately dapagliflozin was administered. The doses of the antihypertensive drug and the antidiabetic drug were determined considering the doses to be applied in clinical practice.

[1] = system: spontaneously hypertensive rats (SHRs); test: 2-week evaluation of blood pressure lowering effect (non-invasive tail blood pressure, CODA-6); type: in vivo, rat; settings: olmesartan medoxomil 1, valsartan 4, telmisartan 4, dapagliflozin (as propylene glycol hydrate) 1 mg/kg/day; for Systolic blood pressure immediately before administration: 10-week-old SHR, baseline, mean of 5 rats; for Size of blood pressure reduction / Systolic blood pressure at 14th day after administration: SHR; for Size of blood pressure reduction: 14th day versus before administration; for Systolic blood pressure at 14th day after administration: once daily for 14 days, measured 2 hours after dosing
Protocol: The SHR rats are rats derived from Wistar Kyoto WKY) rats with normal blood pressure, and are rats that spontaneously develop hypertension with aging without any artificial treatment. […] The blood pressure in the experimental animals was measured using a CODA-6 system (Kent Scientific Corp.) which is a non-invasive blood pressure (NIBP) measurement system. […] The rats were divided into total 7 groups according to the kind of drug to be administered, and five rats were randomly assigned to each group. The groups administered with each drug are as follows: (2) a group administered with 1 mg/kg/day of olmesartan medoxomil alone; (3) a group administered with 4 mg/kg/day of valsartan alone; (4) a group administered with 4 mg/kg/day of telmisartan alone; (5) a group administered with a combination of 1 mg/kg/day of olmesartan medoxomil+1 mg/kg/day of dapagliflozin; (6) a group administered with a combination of 4 mg/kg/day of valsartan+1 mg/kg/day of dapagliflozin; (7) a group administered with a combination of 4 mg/kg/day of telmisartan+1 mg/kg/day of dapagliflozin. (*In this Example, a dapagliflozin propylene glycol hydrate corresponding to 1 mg of dapagliflozin was administered actually). For drug administration, each drug was administered to each rat once a day at a predetermined dose at the same time every morning. Considering that the amounts of antihypertensive drugs used in humans are different, the antihypertensive drugs were administered at different doses.

[2] = SHR, 1st to 4th week, olmesartan medoxomil 2 mg/kg/day with (G3) or without (G5) dapagliflozin 1 mg/kg/day
[3] = SHR, olmesartan medoxomil 2 mg/kg/day and/or dapagliflozin 1 mg/kg/day (G3, G5, G6)
[4] = p<0.01 at 1st, 2nd, 3rd and 4th week, olmesartan medoxomil 2 mg/kg/day with (G3) or without (G5) dapagliflozin 1 mg/kg/day
[5] = SHR, dapagliflozin 3 mg/kg/day with (G4) or without (G7) olmesartan medoxomil 2 mg/kg/day

| Structure (SMILES) | Diastolic blood pressure at 1st week after administration (SHR rats; [3]) [mmHg] | Diastolic blood pressure at 2nd week after administration (SHR rats; [3]) [mmHg] | Diastolic blood pressure at 3rd week after administration (SHR rats; [3]) [mmHg] | Diastolic blood pressure at 4th week after administration (SHR rats; [3]) [mmHg] | Systolic blood pressure at 1st week after administration (SHR rats; [3]) [mmHg] | Systolic blood pressure at 2nd week after administration (SHR rats; [3]) [mmHg] | Systolic blood pressure at 3rd week after administration (SHR rats; [3]) [mmHg] | Systolic blood pressure at 4th week after administration (SHR rats; [3]) [mmHg] | Diastolic blood pressure immediately after administration (SHR rats; [3]) [mmHg] | Systolic blood pressure immediately after administration (SHR rats; [3]) [mmHg] | Systolic blood pressure immediately before administration [1] [mmHg] | Size of blood pressure reduction [1] [mmHg] | Systolic blood pressure at 14th day after administration [1] [mmHg] | further results |
| --- | --- | --- | --- | --- | --- | --- | --- | --- | --- | --- | --- | --- | --- | --- |
| CCCc1nc(C(C)(C)O)c(C(=O)OCc2oc(=O)oc2C)n1Cc1ccc(-c2ccccc2-c2nnn[nH]2)cc1 [Olmesartan medoxomil, olmesartan medoxomil] | 127 | 153 | 153 | 172 | 159 | 181 | 178 | 190 | 140 | 171 | 202 | 39 | 163 | Range of mean diastolic blood pressure (SHR rats; [2]): 127 to 172 mmHg; Range of mean systolic blood pressure (SHR rats; [2]): 159 to 190 mmHg; Mean diastolic blood pressure compared with negative control group (G2) (SHR rats; [4]): statistically significantly lower; Mean systolic blood pressure compared with negative control group (G2) (SHR rats; [4]): statistically significantly lower |
| CCCc1nc2c(C)cc(-c3nc4ccccc4n3C)cc2n1Cc1ccc(-c2ccccc2C(=O)O)cc1 [Telmisartan, telmisartan] | – | – | – | – | – | – | – | – | – | – | 203 | 35 | 168 | – |
| CCCCC(=O)N(Cc1ccc(-c2ccccc2-c2nnn[nH]2)cc1)[C@H](C(=O)O)C(C)C [Valsartan, valsartan] | – | – | – | – | – | – | – | – | – | – | 200 | 30 | 170 | – |
| CCOc1ccc(Cc2cc([C@@H]3O[C@H](CO)[C@@H](O)[C@H](O)[C@H]3O)ccc2Cl)cc1 [dapagliflozin] | 154 | 179 | 175 | 187 | 185 | 213 | 204 | 211 | 142 | 172 | – | – | – | Diastolic blood pressure at 1st week after administration (SHR rats; [5]): 149 mmHg; Diastolic blood pressure at 2nd week after administration (SHR rats; [5]): 188 mmHg; Diastolic blood pressure at 3rd week after administration (SHR rats; [5]): 204 mmHg; Diastolic blood pressure at 4th week after administration (SHR rats; [5]): 186 mmHg; Systolic blood pressure at 1st week after administration (SHR rats; [5]): 189 mmHg; Systolic blood pressure at 2nd week after administration (SHR rats; [5]): 219 mmHg; Systolic blood pressure at 3rd week after administration (SHR rats; [5]): 228 mmHg; Systolic blood pressure at 4th week after administration (SHR rats; [5]): 212 mmHg; Diastolic blood pressure immediately after administration (SHR rats; [5]): 139 mmHg; Systolic blood pressure immediately after administration (SHR rats; [5]): 172 mmHg |
